Results published in US9255063B2, “Colchicine solid-state forms; methods of making; and methods of use thereof” (Takeda Pharmaceuticals U.S.A., Inc., priority 2008, dated 2016).

Key:
[1] = TG-FTIR, N2 atmosphere, heating rate 10 K/min, range 25° C. to 350° C.
[2] = 81% RH; nitrogen; 38 days
Protocol: Five techniques are used to find colchicine solid forms: 1) suspension equilibration, 2) precipitation 3) drying and water vapor adsorption, 4) evaporation, and 5) melt quench. Suspension equilibration generally is carried out by slurrying the colchicine in a solvent system, optionally including an antisolvent. Precipitation generally is carried out by adding an antisolvent to a solution of colchicine. Evaporation technique is generally carried out by allowing the solvent of a solution of colchicine to evaporate to induce crystallization of the colchicine. Water vapor adsorption technique generally involves exposing colchicine to a controlled humid environment so that the material takes up water. The drying experiments can be performed under inert atmospheres (e.g., nitrogen). Melt quench generally involves fast cooling a melt to form a solid.

COc1cc2c(c(OC)c1OC)-c1ccc(OC)c(=O)cc1[C@@H](NC(C)=O)CC2 [Form F]
Decomposition is observed above (temperature) [1]: above 280 °C

COc1cc2c(c(OC)c1OC)-c1ccc(OC)c(=O)cc1[C@@H](NC(C)=O)CC2 [Form A, (−)-N-[(7S,12aS)-1,2,3,10-tetramethoxy-9-oxo-5,6,7,9-tetrahydrobenzo[a]heptalen-7-yl]-acetamide]
Decomposition is observed above (temperature) [1]: above 275 °C | Ethyl acetate content after water vapor adsorption [2]: 2% ethyl | Water content after water vapor adsorption [2]: 4% water and

COc1cc2c(c(OC)c1OC)-c1ccc(OC)c(=O)cc1[C@@H](NC(C)=O)CC2 [Form E]
Decomposition is observed above (temperature) [1]: above 250 °C
